Results reported in US9278932B1, “Process for preparation of 2-chloro-N-(4-chloro-3-pyridin-2-ylphenyl)-4-methylsulfonylbenzamide solid forms” (SHILPA MEDICARE LIMITED, priority 2013, dated 2016).

What was measured:
[1] = storage and handling stability of the solid form; type: physicochemical
[2] = crystalline free base; cited from earlier work

SMILES | stability on handling and storage (morphology and physicochemical characteristics) ([1]; solid crystalline form, stored for longer time) | time stable to handle and store without any significant or measurable change in morphology and physicochemical characteristics ([1]; solid crystalline material after drying, storage) | solubility [2]
CS(=O)(=O)c1ccc(C(=O)Nc2ccc(Cl)c(-c3ccccn3)c2)c(Cl)c1 [Form-SV, 2-Chloro-N-(4-chloro-3-pyridin-2-ylphenyl)-4-methylsulfonylbenzamide] | quite stable | more than 6 months | 
CS(=O)(=O)c1ccc(C(=O)Nc2ccc(Cl)c(-c3ccccn3)c2)c(Cl)c1 [Vismodegib] |  |  | pH dependent solubility
